# From patent US10576082B2, “ErbB2 regulates autophagic flux to modulate the proteostasis of APP-CTFs in alzheimer's disease” (Academia Sinica, priority 2016, dated 2020)
# Tests used:
# [1] = system: APPswe/PS1ΔE9 double transgenic mice; test: Morris water maze in APPswe/PS1ΔE9 transgenic mice; type: in vivo, mouse; conditions: 5 mg/kg daily oral
# [2] = system: γ-secretase-mediated proteolysis of C99 (CG cells); test: Cell-based C99-specific γ-secretase assay (CG cells, Gal4 luciferase reporter); conditions: 1 μM inhibitor, 1 μg/ml tetracycline, 37° C., 24 h
# Experimental: (A) Adherent CG and NG cells (20,000 cells/well) were treated with 1 μM of the indicated ErbB1/2-selective tyrosine kinase inhibitors in the presence of 1 μg/ml tetracycline at 37° C. for 24 h. The luminescence signals emitted by cells treated with vehicle alone (Ctrl, 0.1% DMSO) were referred to as 100% relative luminescence signals. The luminescence signals generated by γ-secretase-mediated proteolysis of C99 (CG) or NΔE (NG) were determined using the Steady-Glo luciferase assay reagent. (B) HEK293 overexpressing C99-YFP cells were treated with 1 μM of the indicated ErbB1/2 tyrosine kinase inhibitors at 37° C. for 24 h. Clarified lysates were analyzed by Western blotting and quantified by Image J. (C) HEK293 overexpressing ErbB1 ErbB2, CFP-tagged C99, and YFP-tagged NΔE cells were infected with gene-targeting shRNA-encoding lentivirus (shErbB1 or shErbB2) at 37° C. for 48 h. Clarified lysates containing equivalent amounts of proteins were examined by Western blotting and quantified by Image J. (D) CG and NG cells were infected with gene-targeting shRNA-encoding lentivirus at 37° C. for 48 h. Following induction with 1 μg/ml tetracycline for 24 h. […] Data are shown as the mean±SD from three independent experiments, and were analyzed by Student's t-tests. * p<0.05. […]
# [3] = system: IMR32 neuroblastoma cells overexpressing C99-YFP; test: Secreted Aβ40 ELISA, conditional media of IMR32 cells overexpressing C99-YFP; type: cell-based, human; conditions: compound 1 μM, 37° C., 24 h
# Experimental: (§1) (A) IMR32 cells overexpressing C99-YFP were grown with 2 ml fresh culture medium in 6-well plates, and treated with 1 μM CL-387,785 or DAPT at 37° C. for 24 h. The cell extracts were analyzed by Western blotting. (B) Conditional media were harvested and processed for determination of secreted Aβ40 using a colorimetric Aβ40-specific ELISA kit. (C) C99-YFP-expressing IMR32 cells (160,000 cells/well) were seeded onto 6-well plates and cultured at 37° C. for 24 h, and infected with ErbB1- or ErbB2-targeting shRNA lentivirus for an additional 48 h. Infection mixtures were replaced with 2 ml fresh culture medium, and infected cells were then incubated at 37° C. for an additional 24 h. The cell extracts were analyzed by Western blotting with anti-GFP antibody. (D) The conditioned media were harvested and processed for determination of secreted Aβ40. Data are the mean±SD from three independent experiments, and were analyzed by Student's t-tests. * p<0.05. (E) Schematic presentation of the DNA construct encoding recombinant C99-GFP-P2A-GFP. […]
# Cell-based γ-secretase assays for the nuclear function of AICD or NICD. […] Cellular luminescence was determined by the addition of Steady-Glo Luciferase Assay reagents (PROMEGA™), according to the manufacturer's instructions. […] The level of secreted Aβ40 was quantified using a human Aβ40 sandwich ELISA kit (Invitrogen) according to the manufacturer's instructions.
# [4] = system: zebrafish embryos expressing GFP-tagged C99; test: C99-expressing zebrafish model of AD, Western blotting of embryo lysates; type: in vivo; conditions: treated from 48 hpf to 72 hpf at 28° C.
# Experimental: as §1, with “C99-GFP-P2A-GFP. CMV, human cytomegalovirus promoter; CI, chimeric intron; P2A, porcine teschovirus 2A peptide.” for “C99-GFP-P2A-GFP.”
# Overexpression of APP-C99 zebrafish. […] Clarified lysates containing equal amounts of protein were analyzed by Western blotting.
# [5] = system: zebrafish embryos expressing GFP-tagged C99; test: Phenotype of C99-expressing zebrafish embryos (curved trunk, Notch-dependent somite development); type: in vivo; conditions: treated from 48 hpf to 72 hpf, scored at 72 hpf, n=90
smiles,measurement,setting,value
"CC#CC(=O)Nc1ccc2ncnc(Nc3cccc(Br)c3)c2c1 [CL-387,785, N-[4-[(3-bromophenyl)amino]-6-quinazolinyl]-2-butynamide]",probe test with invisible platform (cognitive function versus vehicle-treated AD mice),[1]; after 3 weeks of daily dosing (day 21),dramatic cognitive improvement
same,"spatial learning (escape latency, Morris water maze)",[1]; after 16 days of daily dosing,significantly enhanced spatial learning
same,processing of C99 (luminescence signal in CG cells),[2],effectively blocked the processing of C99
same,level of secreted Aβ40,[3],significantly reduced
same,level of AICD in embryos,[4],concomitant clearance
same,level of C99 in embryos,[4],concomitant clearance
same,"embryo phenotype (trunk, tail, pigmentation; developmental defects)",[5],"all but one CL-387,785-treated embryos exhibited wild-type trunks and tails with normal pigmentation"
